Test system: TNFα secretion in white blood cells from human buffy coat stimulated with phorbol 12-myristate 13-acetate and ionomycin
Assay: TNFα secretion assay
Details: for percent inhibition of TNFα secretion: Bromodiphenhydramine HCl μM: 0/0.21/0.43/0.85/1.7/3.4/6.8/14/27
Experimental: Drugs were added to the indicated concentration. […] The plate was then washed again with 0.1% Tween 20/PBS. An HRP-luminescent substrate was added to each well, and the light intensity of each well was measured using a plate luminometer.

Row | SMILES | percent inhibition of TNFα secretion (Nortryptyline HCl 1 μM) | percent inhibition of TNFα secretion (Nortryptyline HCl 17 μM) | percent inhibition of TNFα secretion (Nortryptyline HCl 33 μM) | inhibition of TNFα secretion (prednisolone 1 μM, doxylamine succinate r5-r13: 0,0.2,0.4,0.8,1.6,3.2,6.4,13,26 μM)
1 | CNCCC=C1c2ccccc2CCc2ccccc21.Cl [Nortryptyline HCl] | 1.7 | 80 | 92 | 
2 | CN(C)CCOC(C)(c1ccccc1)c1ccccn1 (stereo not shown) [Doxylamine Succinate] |  |  |  | 34

— patent US20050192261A1, “Methods and reagents for the treatment of immunoinflammatory disorders” (priority 2003, published 2005)
